Data as given in ChEMBL document CHEMBL2429823, “Synthesis and biological evaluation of novel 3,4-diaryl lactam derivatives as triple reuptake inhibitors” (Bioorg Med Chem Lett, 2013).
pIC50: −log10 of the molar value.

Key:
[1] = biological target: T1, Sodium-dependent dopamine transporter (Homo sapiens, UniProt Q01959); assay: Displacement of [3H]Win35428 from human recombinant DAT over-expressed in CHOK1 cells at 10 uM; assay type: cell-based; conditions: CHO-K1
[2] = biological target: T2, Sodium-dependent noradrenaline transporter (Homo sapiens, UniProt P23975); assay: Displacement of [3H]Nisoxetine from human recombinant NET over-expressed in dog MDCK cells at 10 uM; assay type: cell-based
[3] = biological target: T3, Sodium-dependent serotonin transporter (Homo sapiens, UniProt P31645); assay: Displacement of [3H]imipramin from human recombinant SERT over-expressed in HEK293 cells at 10 uM; assay type: cell-based
Target sequence in this assay (P31645 whole entry, looked up): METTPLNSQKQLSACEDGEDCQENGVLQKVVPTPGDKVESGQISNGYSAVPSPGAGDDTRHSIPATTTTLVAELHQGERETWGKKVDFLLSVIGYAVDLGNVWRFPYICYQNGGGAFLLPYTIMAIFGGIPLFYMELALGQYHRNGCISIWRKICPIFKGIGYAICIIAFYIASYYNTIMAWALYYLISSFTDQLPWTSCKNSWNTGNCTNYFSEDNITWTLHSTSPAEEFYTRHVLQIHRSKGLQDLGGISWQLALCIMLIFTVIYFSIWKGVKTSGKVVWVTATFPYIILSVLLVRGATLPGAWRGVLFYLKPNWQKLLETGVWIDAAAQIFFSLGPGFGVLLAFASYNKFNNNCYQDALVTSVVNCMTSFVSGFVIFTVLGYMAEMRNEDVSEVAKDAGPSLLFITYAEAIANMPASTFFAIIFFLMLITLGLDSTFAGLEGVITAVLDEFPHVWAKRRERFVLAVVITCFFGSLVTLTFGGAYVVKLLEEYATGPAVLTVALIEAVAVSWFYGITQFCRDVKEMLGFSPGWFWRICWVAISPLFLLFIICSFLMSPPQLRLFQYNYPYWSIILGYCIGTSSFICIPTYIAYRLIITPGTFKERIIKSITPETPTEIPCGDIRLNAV

[4] = biological target: T3, Sodium-dependent serotonin transporter; conditions: HEK293, at 10 µM
Target sequence in this assay (P31645 whole entry, looked up): as above
Description: Inhibition of human SERT-mediated serotonin uptake expressed in HEK293 cells at 10 uM after 15 mins by fluorescence plate reader analysis

[5] = biological target: T1, Sodium-dependent dopamine transporter; assay: biochemical
[6] = biological target: T2, Sodium-dependent noradrenaline transporter; assay: biochemical
[7] = biological target: T3, Sodium-dependent serotonin transporter; assay: biochemical; assay type: cell-based, HEK293
Target sequence in this assay (P31645 whole entry): as the sequence (P31645 whole entry, looked up) above

T1 sequence (Q01959 whole entry): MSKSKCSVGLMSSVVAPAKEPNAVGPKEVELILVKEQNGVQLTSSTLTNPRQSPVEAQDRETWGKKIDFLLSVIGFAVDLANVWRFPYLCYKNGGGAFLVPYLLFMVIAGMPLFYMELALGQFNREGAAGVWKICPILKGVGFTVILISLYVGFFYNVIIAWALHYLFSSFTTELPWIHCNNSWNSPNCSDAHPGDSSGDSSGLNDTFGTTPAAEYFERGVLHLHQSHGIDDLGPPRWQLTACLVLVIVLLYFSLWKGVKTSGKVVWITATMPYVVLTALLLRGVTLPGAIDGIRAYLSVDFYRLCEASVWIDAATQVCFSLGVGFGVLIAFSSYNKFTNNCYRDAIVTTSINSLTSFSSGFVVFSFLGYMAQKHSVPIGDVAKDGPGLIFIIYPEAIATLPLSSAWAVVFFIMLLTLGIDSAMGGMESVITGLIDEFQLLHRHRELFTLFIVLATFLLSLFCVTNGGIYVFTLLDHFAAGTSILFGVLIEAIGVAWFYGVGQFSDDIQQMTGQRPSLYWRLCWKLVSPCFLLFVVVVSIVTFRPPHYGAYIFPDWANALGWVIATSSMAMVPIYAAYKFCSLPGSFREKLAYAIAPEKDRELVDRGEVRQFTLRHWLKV
T2 sequence (P23975 whole entry): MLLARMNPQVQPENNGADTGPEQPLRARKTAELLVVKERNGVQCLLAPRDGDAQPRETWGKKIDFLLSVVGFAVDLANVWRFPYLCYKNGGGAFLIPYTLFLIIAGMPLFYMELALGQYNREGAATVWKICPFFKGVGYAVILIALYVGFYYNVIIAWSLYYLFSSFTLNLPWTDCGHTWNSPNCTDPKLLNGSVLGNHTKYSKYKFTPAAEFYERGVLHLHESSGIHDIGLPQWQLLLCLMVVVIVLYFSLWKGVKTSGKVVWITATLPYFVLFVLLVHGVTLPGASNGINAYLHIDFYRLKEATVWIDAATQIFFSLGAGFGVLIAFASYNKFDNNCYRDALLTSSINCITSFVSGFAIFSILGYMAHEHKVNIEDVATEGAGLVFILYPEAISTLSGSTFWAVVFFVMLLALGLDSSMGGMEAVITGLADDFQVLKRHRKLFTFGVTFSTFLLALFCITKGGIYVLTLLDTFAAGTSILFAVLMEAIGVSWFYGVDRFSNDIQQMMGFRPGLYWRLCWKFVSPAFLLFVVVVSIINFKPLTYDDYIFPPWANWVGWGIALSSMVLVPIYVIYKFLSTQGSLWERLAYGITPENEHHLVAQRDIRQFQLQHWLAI

| Structure (SMILES) | inhibition [1] [%] | inhibition [2] [%] | inhibition [3] [%] | inhibition [4] [%] | pIC50 [5] | pIC50 [6] | pIC50 [7] |
| --- | --- | --- | --- | --- | --- | --- | --- |
| O=C1NCC(c2cccc(Cl)c2)C1c1ccc(Cl)cc1 (configuration not stated) | 95 | 87 | 49 | 38.4 | 7.48 | 5.78 |  |
| O=C1NCC(c2cccc(Cl)c2)C1c1ccccc1Cl (configuration not stated) | 96 | 41 | 39 | 20.2 | 7.76 |  |  |
| CNCCC(Oc1ccccc1OC)c1ccccc1 (configuration not stated) |  |  |  | 54 |  |  |  |
| Clc1cccc2c1CC[C@H]1NC[C@H](c3ccccc3)[C@@H]21 | 5 | 10 | 9 |  |  |  |  |
| O=C1NCC(c2cccc(Cl)c2)C1c1cccc(Cl)c1 (configuration not stated) | 98 | 59 | 26 | 14.3 | 7.41 |  |  |
| O=C1NCC(c2ccccc2Cl)C1c1ccc2ccccc2c1 (configuration not stated) | 23 | 89 | 56 | 4.5 |  | 5.86 |  |
| O=C1NCC(c2cccc(Cl)c2)C1c1ccccc1 (configuration not stated) | 98 | 26 | 55 | 24.3 | 7.64 |  |  |
| O=C1NCC(c2ccc(Cl)c(Cl)c2)C1c1ccc(Cl)c(Cl)c1 (configuration not stated) | 85 | 90 | 42 | 8.8 | 6.55 | 6.00 |  |
| Clc1ccc2c(c1Cl)CC[C@H]1NC[C@H](c3ccccc3)[C@@H]21 | 5 | 10 | 9 |  |  |  |  |
| O=C1NCC(c2ccccc2Cl)C1c1ccc(Cl)c(Cl)c1 (configuration not stated) | 87 | 90 | 26 | 6.2 | 5.76 | 5.60 |  |
| O=C1NCC(c2ccc(Cl)cc2)C1c1ccc(Cl)cc1 (configuration not stated) | 99 | 75 | 84 | 58.1 | 6.75 | 5.29 | 7.00 |
| O=C1NCC(c2ccccc2Cl)C1c1ccccc1 (configuration not stated) | 70 | 5 | 23 | 19.3 | 5.67 |  |  |
| Clc1ccc2c(c1)CC[C@H]1NC[C@H](c3ccccc3)[C@@H]21 | 5 | 10 | 9 |  |  |  |  |
| O=C1NCC(c2ccc(Cl)c(Cl)c2)C1c1ccccc1 (configuration not stated) | 83 | 87 | 49 | 29.4 | 7.44 | 6.06 |  |
| O=C1NCC(c2ccc(Cl)c(Cl)c2)C1c1cccc(Cl)c1 (configuration not stated) | 87 | 93 | 57 | 20.4 | 7.38 | 6.42 |  |
| O=C1NCC(c2cccc(Cl)c2)C1c1ccc(Cl)c(Cl)c1 (configuration not stated) | 99 | 78 | 71 | 40.9 | 6.76 | 5.56 | 5.43 |
| O=C1NCC(c2ccc(Cl)c(Cl)c2)C1c1ccc(Cl)cc1 (configuration not stated) | 76 | 83 | 90 | 50.4 | 7.00 | 5.69 | 7.07 |
| O=C1NCC(c2ccccc2Cl)C1c1ccc(Cl)cc1 (configuration not stated) | 51 | 60 | 26 | 8.5 |  | 5.12 |  |
| CN(C)CCCN1c2ccccc2CCc2ccc(Cl)cc21 [CLOMIPRAMINE] |  |  |  |  | 5.56 |  |  |
| O=C1NCC(c2ccc(Cl)c(Cl)c2)C1c1ccccc1Cl (configuration not stated) | 100 | 99 | 52 | 21.9 | 8.09 | 6.29 |  |
| O=C1NCC(c2ccc(Cl)cc2)C1c1ccccc1Cl (configuration not stated) | 97 | 74 | 49 | 23.4 | 7.09 | 5.45 |  |
| O=C1NCC(c2ccc(Cl)cc2)C1c1ccccc1 (configuration not stated) | 99 | 50 | 20 | 30.8 | 7.49 |  |  |
| Clc1ccc2c(c1)[C@@H]1[C@@H](c3ccccc3)CN[C@@H]1CC2 | 5 | 10 | 9 |  |  |  |  |
| O=C1NCC(c2ccc(Cl)c(Cl)c2)C1c1ccc2ccccc2c1 (configuration not stated) | 86 | 94 | 69 | 4.4 | 6.92 | 6.32 | 6.02 |
| O=C1NCC(c2ccccc2Cl)C1c1ccccc1Cl (configuration not stated) | 45 | 33 | 20 | 6.9 |  |  |  |
| O=C1NCC(c2ccc(Cl)cc2)C1c1cccc(Cl)c1 (configuration not stated) | 99 | 72 | 22 | 12.2 | 7.44 | 5.42 |  |
| O=C1NCC(c2ccc(Cl)cc2)C1c1ccc(Cl)c(Cl)c1 (configuration not stated) | 96 | 92 | 57 | 22.7 | 6.55 | 5.72 |  |
| O=C1NCC(c2ccc(Cl)cc2)C1c1ccc2ccccc2c1 (configuration not stated) | 97 | 91 | 79 | 26.3 | 6.80 | 5.93 | 5.19 |
